Patent publication US4414334A, “Oxygen scavenging with enzymes” (Phillips Petroleum Company, priority 1981, dated 1983)

Assays:
[1] = target: alcohol oxidase (alcohol: oxygen oxidoreductase) isolated from Pichia pastoris (Komagataella phaffii, UniProt F2QY27)
[2] = substrate: CO; assay: purified protein, by the assay type; conditions: other: Pichia pastoris alcohol oxidase; substrate methanol

For `C=O` [HCHO, formaldehyde], the “Inhibitors (inhibitory concentration of HCHO)” value ([1]; Table I lists HCHO as inhibitor at >30 mM) was greater than 30 mM.

Work on `CO` [methanol] yielded a Km ([1]; read-out: apparent Michaelis constant, Km, for methanol, substrate methanol) of roughly 4 mM.

B1: alcohol oxidase (alcohol: oxygen oxidoreductase) isolated from Pichia pastoris (Komagataella phaffii CBS 7435) (protein)
chain: AIPEEFDILVLGGGSSGSCIAGRLANLDHSLKVGLIEAGENNLNNPWVYLPGIYPRNMKLDSKTASFYTSNPSPHLNGRRAIVPCANVLGGGSSINFMMYTRGSASDYDDFQAEGWKTKDLLPLMKKTETYQRACNNPDIHGFEGPIKVSFGNYTYPVCQDFLRASESQGIPYVDDLEDLVTAHGAEHWLKWINRDTGRRSDSAHAFVHSTMRNHDNLYLICNTKVDKIIVEDGRAAAVRTVPSKPLNPKKPSHKIYRARKQIVLSCGTISSPLVLQRSGFGDPIKLRAAGVKPLVNLPGVGRNFQDHYCFFSPYRIKPQYESFDDFVRGDAEIQKRVFDQWYANGTGPLATNGIEAGVKIRPTPEELSQMDESFQEGYREYFEDKPDKPVMHYSIIAGFFGDHTKIPPGKYMTMFHFLEYPFSRGSIHITSPDPYAAPDFDPGFMNDERDMAPMVWAYKKSRETARRMDHFAGEVTSHHPLFPYSSEARALEMDLETSNAYGGPLNLSAGLAHGSWTQPLKKPTAKNEGHVTSNQVELHPDIEYDEEDDKAIENYIREHTETTWHCLGTCSIGPREGSKIVKWGGVLDHRSNVYGVKGLKVGDLSVCPDNVGCNTYTTALLIGEKTATLVGEDLGYSGEALDMTVPQFKLGTYEKTGLARF
For B1, the Km [2] was 4 mM.
